From patent US6936457B1 (Merck & Co., Inc., priority 1990, dated 2005) come the findings set out here.

One may read the EC50 as the concentration that produces a half-maximal response. The IC50 is the concentration needed to halve the response being measured.

Where “and” joins values, the source holds several entries; their conditions need not be identical. Equal values may be shown once. Read-outs that look alike come from different tables or passages of the source.

One test relates to PC12. The test can be described thus: 86Rb ion-flux assay, PC12 positive control cells. The format is cell-based.
The subject of another test is IMR32. The test can be described thus: 86Rb ion-flux assay, IMR32 positive control cells. The test is classed as cell-based, human.
For test [1], the target named is T1, human neuronal nicotinic AChR β4 subunit (Homo sapiens, UniProt P30926).
T1 construct: expressed in transfected cells; host or cells: Xenopus oocytes injected with in vitro transcript (KEβ4.6/pGEM or pCMV-KEβ4)
T1 sequence (P30926 22-498): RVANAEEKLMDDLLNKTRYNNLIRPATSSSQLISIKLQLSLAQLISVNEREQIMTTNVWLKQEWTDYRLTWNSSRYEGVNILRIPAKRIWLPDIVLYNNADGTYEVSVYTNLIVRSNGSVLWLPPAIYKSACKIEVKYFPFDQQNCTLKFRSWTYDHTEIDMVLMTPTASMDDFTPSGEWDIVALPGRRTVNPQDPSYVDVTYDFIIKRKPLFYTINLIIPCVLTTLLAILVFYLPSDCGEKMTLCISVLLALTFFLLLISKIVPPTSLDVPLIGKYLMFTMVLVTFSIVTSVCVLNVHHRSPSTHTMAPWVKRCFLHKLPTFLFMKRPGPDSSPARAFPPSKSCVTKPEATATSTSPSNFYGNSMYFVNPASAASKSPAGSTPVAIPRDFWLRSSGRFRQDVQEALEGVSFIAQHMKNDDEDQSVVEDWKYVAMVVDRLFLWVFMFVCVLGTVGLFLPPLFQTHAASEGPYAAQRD
The test can be described thus: Two-electrode voltage clamp of Xenopus oocytes injected with β4 transcript alone. The test is classed as cell-based. (Two-electrode voltage clamp holds a large cell at a set potential and records current.)

Test [2] concerns the target T2, human neuronal nicotinic AChR α3 and β4 subunits (Homo sapiens, UniProt P30926+P32297).
T2 construct: expressed in transfected cells; host or cells: Xenopus oocytes injected with in vitro transcripts
The test can be described thus: Two-electrode voltage clamp of Xenopus oocytes injected with α3 and β4 transcripts. The format is cell-based.

For test [3], the target named is T3, human neuronal nicotinic AChR α3 subunit (Homo sapiens, UniProt P32297).
T3 construct: expressed in transfected cells; host or cells: Xenopus oocytes injected with in vitro transcript
The test can be described thus: Two-electrode voltage clamp of Xenopus oocytes injected with α3 transcript alone. The format is cell-based.

Test [4] addresses T2, human neuronal nicotinic AChR α3 and β4 subunits. The format is cell-based.
Another test addresses human α3β2α5 nAChR (Homo sapiens, UniProt P17787+P30532+P32297, D398N). The format is cell-based.
Test [5] has as its target human neuronal nicotinic AChR α7 subunit (Homo sapiens, UniProt P36544). The test is classed as cell-based.
Test [6] has as its target human neuronal nicotinic AChR α3 and β2 subunits (Homo sapiens, UniProt P17787+P32297). The test is classed as cell-based.
The target of test [7] is T4, human α7 nAChR (Homo sapiens, UniProt P36544). The format is cell-based.
T4 sequence (P36544 23-502): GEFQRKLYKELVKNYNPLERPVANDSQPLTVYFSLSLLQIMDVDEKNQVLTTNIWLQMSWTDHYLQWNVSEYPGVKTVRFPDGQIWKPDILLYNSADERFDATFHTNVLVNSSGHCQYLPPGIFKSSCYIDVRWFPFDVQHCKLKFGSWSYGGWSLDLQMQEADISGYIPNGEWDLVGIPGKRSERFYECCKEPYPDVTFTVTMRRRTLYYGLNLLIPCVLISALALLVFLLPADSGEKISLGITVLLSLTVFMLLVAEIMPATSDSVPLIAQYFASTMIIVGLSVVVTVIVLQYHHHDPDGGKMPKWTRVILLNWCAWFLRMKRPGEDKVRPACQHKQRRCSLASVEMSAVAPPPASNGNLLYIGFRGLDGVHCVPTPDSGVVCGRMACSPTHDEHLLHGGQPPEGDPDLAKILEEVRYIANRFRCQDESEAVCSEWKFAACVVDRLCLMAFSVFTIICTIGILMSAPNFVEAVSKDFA
The target in test [8] is T4, human α7 nAChR. The format is binding.
Where [9] appears, read: Rattus norvegicus, PC-12, PC12, agonists and antagonists, read-out: EC50.
Setting [10] is: Homo sapiens, IMR-32, IMR32, agonists and antagonists, read-out: EC50.

human neuronal nicotinic AChR α3 and β2 subunits, sequence (P17787 26-502, one chain of several): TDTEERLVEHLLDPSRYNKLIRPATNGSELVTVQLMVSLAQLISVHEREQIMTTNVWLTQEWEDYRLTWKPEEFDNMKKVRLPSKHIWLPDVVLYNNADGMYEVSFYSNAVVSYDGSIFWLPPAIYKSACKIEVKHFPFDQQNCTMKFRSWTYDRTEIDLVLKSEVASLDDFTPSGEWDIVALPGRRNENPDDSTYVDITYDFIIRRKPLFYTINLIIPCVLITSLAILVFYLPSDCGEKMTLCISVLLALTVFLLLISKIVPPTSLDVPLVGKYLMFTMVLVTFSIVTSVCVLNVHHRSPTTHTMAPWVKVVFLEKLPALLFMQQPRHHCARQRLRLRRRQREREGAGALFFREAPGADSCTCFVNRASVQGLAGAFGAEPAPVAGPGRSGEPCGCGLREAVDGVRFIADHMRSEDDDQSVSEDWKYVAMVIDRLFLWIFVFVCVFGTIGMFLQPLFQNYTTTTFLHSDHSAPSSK
human α3β2α5 nAChR, sequence (P32297 32-505): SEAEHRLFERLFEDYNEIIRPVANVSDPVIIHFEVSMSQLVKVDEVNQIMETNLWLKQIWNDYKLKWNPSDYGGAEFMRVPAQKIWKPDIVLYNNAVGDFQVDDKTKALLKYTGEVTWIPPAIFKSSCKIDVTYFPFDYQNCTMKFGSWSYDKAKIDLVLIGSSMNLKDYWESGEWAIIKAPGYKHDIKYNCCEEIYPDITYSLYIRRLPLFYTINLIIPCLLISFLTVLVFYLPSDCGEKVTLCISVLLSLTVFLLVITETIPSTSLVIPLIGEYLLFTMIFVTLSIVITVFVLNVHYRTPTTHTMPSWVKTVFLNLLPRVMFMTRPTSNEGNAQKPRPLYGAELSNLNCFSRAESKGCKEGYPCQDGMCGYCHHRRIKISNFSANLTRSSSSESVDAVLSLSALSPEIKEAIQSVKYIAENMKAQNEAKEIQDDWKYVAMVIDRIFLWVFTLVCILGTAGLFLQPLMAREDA
human α3β2α5 nAChR, sequence (P17787 26-502): as the sequence (P17787 26-502, one chain of several) above
human neuronal nicotinic AChR α7 subunit, sequence (P36544 23-502): as the sequence (P36544 23-502) above

In the case of `C[N+](C)(C)CCOC(N)=O.[Cl-]` [CCh, carbamylcholine], the results for the Maximum response with PC12 and in the test on IMR32 were 3.3 X^b and 7.6 X^c, respectively. The EC50 in the test on PC12 (read-out: EC50) came out at 35 µM; in the test with IMR32 (read-out: EC50), 230 µM.
In the test on IMR32 (Homo sapiens, IMR-32), `CN1[C@@H]2CC[C@H]1C[C@@H](OC(=O)C(CO)c1ccccc1)C2` (stereo partly shown) [atropine] returned a concentration for a half-maximal effect (EC50) of 43 µM.
For the compound `O=c1cccc2n1C[C@@H]1CNC[C@H]2C1` [cytisine], the Maximum response in the test on PC12 is 3.6 X^d; in the test on IMR32, 10 X^e. Also, the concentration for a half-maximal effect (EC50) in the test with PC12 (Rattus norvegicus, PC-12) was found to be 57 µM; in the test on IMR32 (Homo sapiens, IMR-32) it was 14 µM. Further, the “response of oocytes to application of agonist” value in test [1] and in test [3] was “did not respond” each time. In test [2], the “Number of oocytes responding” value is 3 of 4 and 5 of 5 and 6 of 6. Moreover, the “inward currents in response to agonist” value in test [2] is reported as “detectable inward currents”. In addition, the “relative potency of the agonists” value in [2] is reported as “cytisine>ACh>nicotine”.
Regarding `COc1cc2c3cc1Oc1cc(ccc1O)C[C@@H]1c4c(cc(OC)c(O)c4Oc4ccc(cc4)C[C@@H]3N(C)CC2)CC[N+]1(C)C` [d-tubocurarine], the EC50 in the test with PC12 (read-out: EC50) was determined as 0.81 µM; in the test with IMR32 (read-out: EC50), 2.5 µM. The “nicotine-stimulated increase in fluorescence in presence of antagonist” value (in test [4]; at human α3β2α5 nAChR) was “not observed” in each case. Further, in test [5], the “block of the response to ACh” value is reported as “blocked”. In addition, the “block of the current response to ACh” value in [6] is “blocked”. In addition, the “block of the responses to ACh and nicotine” value in [2] is “reproducibly blocked”. Moreover, the “blockage of the response to ACh” value in test [2] is “complete blockage”. Further, the “reversibility of the inhibition” value in test [2] is “appeared to be reversible”.
`Clc1ccc(C2CC3CCC2N3)cn1` (stereo not shown) [epibatidine]: on human α7 nAChR [7], the “response of individual cells” value is “homogenous manner”.
For the compound `C[N+](C)(C)CCCCCC[N+](C)(C)C` [hexamethonium], in the test on IMR32 (Homo sapiens, IMR-32), the response was half-maximal at 22 µM (EC50).
Turning to `CNC1(C)C2CCC(C2)C1(C)C` (stereo not shown) [mecamylamine], the results for the EC50 in the test on PC12 (setting [9]) and in the test on IMR32 (setting [10]) were 0.42 µM and 0.11 µM, respectively. Also, the “block of the responses to ACh, nicotine and cytisine” value in test [2] is reported as “at least partially blocked”.
Turning to `CN1CCCC1c1cccnc1` (stereo not shown) [nicotine], the Maximum response in the test on PC12 (PC12, at 200 μM nicotine, 300 μM CCh, 1 mM cytisine (footnotes)) is listed as 2.1 X^a; in the test on IMR32 (IMR32, at 200 μM nicotine, 3 mM CCh, 100 μM cytisine (footnotes)) it was 7.7 X^a. The half-maximal effective concentration (EC50) stood at 52 µM with PC12 (setting [9]) and 18 µM in the test on IMR32 (setting [10]). In addition, the “fluorescence (intracellular calcium) after addition of agonist” value (in test [4]; at human α3β2α5 nAChR) was “increased dramatically” each time. In addition, the “Number of oocytes responding” value in test [1] is 0 of 9; in [6], 2 of 9 and 0 of 9; in test [2], 4 of 5 and 3 of 4 and 5 of 5 and 6 of 6; in test [3], 0 of 8. Further, the “response of oocytes to application of agonist” value in test [1] and in test [3] was “did not respond” in each case. The “inward currents in response to agonist” value in test [2] was “detectable inward currents”.
Turning to α-bungarotoxin, on human α7 nAChR [8], the “[3H]-MLA binding displaced” value is “approximately 65%”. For the same compound, the IC50 at human α7 nAChR [8] (read-out: IC50, displacement of [3H]-MLA binding) is 3 nM.
